Measured values published in US8921348B2, “Optimizing mifepristone levels in plasma serum of patients suffering from mental disorders treatable with glucocorticoid receptor antagonists” (Corcept Therapeutics, priority 2007, dated 2014).

Tests used:
[1] = tested on: patients with major depressive disorder with psychotic features (PMD); test: Phase III trials of CORLUX plus antidepressant vs. placebo: responders on BPRS Positive Symptom Subscale; assay type: in vivo, human
From the text: This example provides a randomized, double-blind, placebo-controlled, parallel group study of the safety and efficacy of three dose levels of CORLUXTM (Mifepristone) plus an antidepressant vs. placebo plus an antidepressant in the treatment of psychotic symptoms in patients with major depressive disorder with psychotic features (PMD). The study was a Phase III trial performed using several investigators at several different sites. […] Patients eligible for randomization were male or nonpregnant female outpatients, and inpatients, if clinically required, with a diagnosis of Major Depressive Disorder with Psychotic Features (DSM-IV 296.24 or 296.34), and a BPRS Positive Symptom subscale score of at least 12, a BPRS total score of at least 38, and a HAMD-24 score of at least 20. CORLUX was used as the test drug at 300 (1×300 mg tablet), 600 (2×300 mg tablet), and 1200 mg (4×300 mg tablet) once a day by mouth for the initial 7 days. […] The reference drug was a placebo (1, 2, or 4 tablets matching CORLUX 300 mg tablets) once a day by mouth for the initial 7 days. […] An antidepressant selected from a prescribed list was started simultaneously with the study drug, and continued to the end of the trial. BPRS and HAM-D assessments were performed at Screen and on Days 0, 7, 14, 28, 42, and 56, and at early termination when it occurred. Safety visits occurred at Days 21 and 35. The patients who are seen as outpatients made daily visits to the clinic setting to receive study medications for the first 7 days. If clinically necessary, a patient was treated as an inpatient. In addition to the selected antidepressant, continuing benzodiazepines was allowed up to specified dose levels, but antipsychotics, mood stabilizers and additional antidepressants were not allowed during the entire study. If the patient was at imminent risk to him/herself and/or others and therefore could not be adequately treated within the study (e.g., required ECT, new or re-hospitalization for PMD, antipsychotics or mood stabilizers, or a second antidepressant), the patient underwent an early termination visit on the day that rescue therapy was started and completed final efficacy evaluations. If early termination occurred prior to day 35, the patient returned for a safety follow up visit at day 35. […] The secondary endpoints were: (1) the proportion of responders at days 7 and 28; and (2) the mean change from baseline to day 56 in the HAM-D-24 total score. […] This example provides an international, double-blind, placebo-controlled study of the efficacy and safety of CORLUXTM (Mifepristone) vs. placebo in the treatment of psychotic symptoms in patients with Psychotic Major Depression (PMD). The study was a Phase III trial performed using several investigators at several different international sites. […] The number of patients was 220 evaluable subjects. […] CORLUX was administered in a 600 mg dose once a day by mouth for the initial 7 days (administered as two 300 mg tablets). Reference drug, dose, dosage regimen, route of administration: Matching placebo was administered once a day by mouth for the initial 7 days. […] After the 7-day dosing period, patients were evaluated at Days 14, 21, 28, 35, 42 and 56. An antidepressant was administered simultaneously with study drug, and continued to the end of the trial (Day 56). BPRS and HAMD-24 assessments were performed at Screen and on Days 0, 7, 14, 28, 42 and 56, or at early termination. A safety visit occurred on Days 21 and 35, and at study termination on Day 56. Subjects treated on an outpatient basis made daily visits to the clinic to receive study medication for the first 7 days. Subjects were treated on an inpatient basis for as long as deemed clinically necessary by the investigator. In addition to the selected antidepressant, concomitant benzodiazepine treatment was allowed up to specified dose levels. Antipsychotics, mood stabilizers and a second antidepressant were prohibited during the entire study. […]

[2] = species and route not given; cited from earlier work
[3] = Mifepristone blood serum/plasma level after the same dose in different patients; assay type: in vivo, human; conditions: same dose of mifepristone
Protocol: In some embodiments, the assay can be performed as follows. Blood is collected from a patient in a vacutainer containing sodium heparin. The blood is centrifuged and the resulting plasma frozen at an appropriate temperature until assay. In some embodiments, the temperature is about −70° C. In other embodiments, other blood components can be collected and stored. Prior to analysis, the plasma is thawed and a fraction of the plasma is mixed with an internal standard in a solvent such as acetonitrile, to obtain a fixed concentration of the standard. In some embodiments, the internal standard can be mifepristone-d4. The concentration of the internal standard is selected in order to be greater than the expected concentration of mifepristone in the plasma. […]
The sample can then be analyzed by reverse-phase high pressure liquid chromatography (HPLC). […]
The reverse-phase HPLC column can be a phenyl column maintained at 50° C. […] Following elution, the mobile phase can be nebulized using heated nitrogen in a Z-spray source/interface and the ionized compounds detected using a tandem quadrupole mass spectrometer. Mifepristone (molecular weight of 430 g/mol) can be detected at m/z 372.30. The internal standard mifepristone-d4 can be detected at m/z 376.30. The ratio of the mifepristone peak height to the peak height for the internal standard can then be calculated. […]

## CC#C[C@]1(O)CC[C@H]2[C@@H]3CCC4=CC(=O)CCC4=C3[C@@H](c3ccc(N(C)C)cc3)C[C@@]21C [Corlux, 17-beta-hydroxy-11-beta-(4-dimethyl-aminophenyl)-17-alpha-(1-propynyl)-estra-4,9-dien-3-one]
[1]; 1200 mg group (OC), all patients receiving the 1200 mg dose, FIG. 4
  proportion of patients with at least a 50% reduction from baseline in BPRS PSS scores at days 7 and 56: 47%
[1]; 1200 mg group (OC), plasma levels <1357 ng/mL, FIG. 5
  proportion of patients with at least a 50% reduction from baseline in BPRS PSS scores at days 7 and 56: 31%
[1]; 1200 mg group (OC), plasma levels <1661 ng/mL, FIG. 6
  proportion of patients with at least a 50% reduction from baseline in BPRS PSS scores at days 7 and 56: 39%
[1]; 1200 mg group (OC), plasma levels >1357 ng/mL, FIG. 5
  proportion of patients with at least a 50% reduction from baseline in BPRS PSS scores at days 7 and 56: 54%
[1]; 1200 mg group (OC), plasma levels >1661 ng/mL, FIG. 6
  proportion of patients with at least a 50% reduction from baseline in BPRS PSS scores at days 7 and 56: 58%
[1]; all studies (OC), all patients receiving Corlux, FIG. 1
  proportion of patients with at least a 50% reduction from baseline in BPRS PSS scores at days 7 and 56: 35%
[1]; all studies (OC), patients with plasma levels <1357 ng/mL, FIG. 2
  proportion of patients with at least a 50% reduction from baseline in BPRS PSS scores at days 7 and 56: 27%
[1]; all studies (OC), patients with plasma levels <1661 ng/mL, FIG. 3
  proportion of patients with at least a 50% reduction from baseline in BPRS PSS scores at days 7 and 56: 29%
[1]; all studies (OC), patients with plasma levels >1357 ng/mL, FIG. 2
  proportion of patients with at least a 50% reduction from baseline in BPRS PSS scores at days 7 and 56: 40%
[1]; all studies (OC), patients with plasma levels >1661 ng/mL, FIG. 3
  proportion of patients with at least a 50% reduction from baseline in BPRS PSS scores at days 7 and 56: 44%
[2]
  LD50 dose: about 1000 mg/kg
[3]
  difference in blood serum levels from one patient to another: ≤ 800% and up to 800%
